Measurements taken from patent US10479784B2, “Substituted pyrazin-2-amines as inhibitors of ATR kinase” (Vertex Pharmaceuticals Incorporated, priority 2008, dated 2019).

Molecular target: full-length ATR (Homo sapiens (Human), UniProt Q13535)
Test: ATR Inhibition Assay (radioactive-phosphate incorporation)
Format: biochemical
Conditions: read-out: ATR Ki
How it was run: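 Full-length human ATR (5 nM) was assayed at 25 °C in 50 mM Tris/HCl pH 7.5, 10 mM MgCl2, 1 mM DTT, with 10 μM [γ-33P]ATP and 800 μM peptide, after 10-min compound preincubation. Reactions were stopped after 24 h, captured on phosphocellulose and counted; Ki(app) came from non-linear regression of initial rates.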

Sequence of full-length ATR (Q13535 whole entry): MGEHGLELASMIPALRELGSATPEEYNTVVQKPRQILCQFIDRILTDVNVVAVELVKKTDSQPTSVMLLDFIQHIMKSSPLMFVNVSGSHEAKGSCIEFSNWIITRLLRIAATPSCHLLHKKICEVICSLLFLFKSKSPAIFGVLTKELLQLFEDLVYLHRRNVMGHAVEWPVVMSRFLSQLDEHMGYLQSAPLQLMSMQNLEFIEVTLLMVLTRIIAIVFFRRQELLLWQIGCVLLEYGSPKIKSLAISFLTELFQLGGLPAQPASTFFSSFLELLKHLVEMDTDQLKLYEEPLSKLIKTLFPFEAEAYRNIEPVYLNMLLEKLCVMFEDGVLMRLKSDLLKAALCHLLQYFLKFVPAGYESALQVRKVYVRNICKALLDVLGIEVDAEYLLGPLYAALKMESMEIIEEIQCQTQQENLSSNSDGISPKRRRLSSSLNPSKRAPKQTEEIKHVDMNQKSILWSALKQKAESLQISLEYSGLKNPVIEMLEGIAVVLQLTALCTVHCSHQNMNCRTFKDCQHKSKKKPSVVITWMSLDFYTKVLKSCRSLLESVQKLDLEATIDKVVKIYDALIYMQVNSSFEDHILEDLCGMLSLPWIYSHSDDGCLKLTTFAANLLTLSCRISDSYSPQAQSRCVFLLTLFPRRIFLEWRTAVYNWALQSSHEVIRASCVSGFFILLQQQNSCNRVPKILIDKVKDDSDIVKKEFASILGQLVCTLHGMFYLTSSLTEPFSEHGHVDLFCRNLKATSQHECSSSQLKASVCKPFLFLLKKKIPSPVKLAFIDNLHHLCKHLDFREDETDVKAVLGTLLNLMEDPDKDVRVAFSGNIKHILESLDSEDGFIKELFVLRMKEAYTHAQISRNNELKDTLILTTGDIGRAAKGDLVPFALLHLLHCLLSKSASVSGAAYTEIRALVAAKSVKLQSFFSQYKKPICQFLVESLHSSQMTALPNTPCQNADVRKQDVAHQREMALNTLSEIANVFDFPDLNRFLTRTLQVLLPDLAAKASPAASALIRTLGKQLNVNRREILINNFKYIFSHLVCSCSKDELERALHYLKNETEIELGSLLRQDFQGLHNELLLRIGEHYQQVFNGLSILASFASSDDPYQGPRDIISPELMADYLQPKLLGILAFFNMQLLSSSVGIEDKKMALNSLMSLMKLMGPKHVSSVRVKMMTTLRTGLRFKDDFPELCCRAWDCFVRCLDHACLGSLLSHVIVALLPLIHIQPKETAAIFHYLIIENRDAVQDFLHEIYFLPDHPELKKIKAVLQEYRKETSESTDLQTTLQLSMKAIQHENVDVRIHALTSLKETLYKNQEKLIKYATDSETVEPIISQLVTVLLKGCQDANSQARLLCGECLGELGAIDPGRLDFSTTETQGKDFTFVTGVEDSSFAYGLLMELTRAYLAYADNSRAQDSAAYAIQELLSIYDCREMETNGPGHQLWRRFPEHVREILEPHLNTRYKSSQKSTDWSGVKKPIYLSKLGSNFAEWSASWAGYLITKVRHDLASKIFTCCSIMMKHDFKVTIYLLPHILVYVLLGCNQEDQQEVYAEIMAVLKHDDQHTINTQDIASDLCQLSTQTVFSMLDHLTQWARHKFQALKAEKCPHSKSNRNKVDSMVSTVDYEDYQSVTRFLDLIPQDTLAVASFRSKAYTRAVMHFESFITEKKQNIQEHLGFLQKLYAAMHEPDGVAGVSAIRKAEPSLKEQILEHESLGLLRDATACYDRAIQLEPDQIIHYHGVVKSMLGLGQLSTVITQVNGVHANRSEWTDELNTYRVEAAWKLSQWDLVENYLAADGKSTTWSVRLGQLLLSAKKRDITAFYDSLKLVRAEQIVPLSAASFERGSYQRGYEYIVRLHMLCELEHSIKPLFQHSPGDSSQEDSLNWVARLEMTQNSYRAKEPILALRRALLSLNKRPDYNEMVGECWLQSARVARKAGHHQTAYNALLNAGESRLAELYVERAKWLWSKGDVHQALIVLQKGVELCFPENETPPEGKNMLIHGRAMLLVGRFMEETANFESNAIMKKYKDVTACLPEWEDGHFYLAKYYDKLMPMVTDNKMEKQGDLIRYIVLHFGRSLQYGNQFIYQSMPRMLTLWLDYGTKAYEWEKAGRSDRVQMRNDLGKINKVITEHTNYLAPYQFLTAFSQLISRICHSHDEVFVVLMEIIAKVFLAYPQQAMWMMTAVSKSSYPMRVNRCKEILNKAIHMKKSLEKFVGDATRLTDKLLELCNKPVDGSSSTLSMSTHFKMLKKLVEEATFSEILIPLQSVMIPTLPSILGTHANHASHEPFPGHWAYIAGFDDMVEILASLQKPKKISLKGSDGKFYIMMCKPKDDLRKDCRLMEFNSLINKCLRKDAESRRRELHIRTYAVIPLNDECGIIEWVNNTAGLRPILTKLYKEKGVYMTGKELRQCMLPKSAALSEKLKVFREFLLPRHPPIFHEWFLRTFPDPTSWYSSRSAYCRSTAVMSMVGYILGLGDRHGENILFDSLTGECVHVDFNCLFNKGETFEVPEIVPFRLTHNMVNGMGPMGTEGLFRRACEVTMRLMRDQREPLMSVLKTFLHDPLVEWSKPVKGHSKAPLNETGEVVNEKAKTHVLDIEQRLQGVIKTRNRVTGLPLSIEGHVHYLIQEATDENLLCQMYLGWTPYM

| SMILES | Ki [nM] |
| --- | --- |
| CC(C)S(=O)(=O)c1ccc(-c2cnc(N)c(-c3nnc(-c4cccc(CN)c4)o3)n2)cc1 [IA-220, 3-[5-[3-(aminomethyl)phenyl]-1,3,4-oxadiazol-2-yl]-5-(4-isopropylsulfonylphenyl)pyrazin-2-amine] | ≤ 10 |
| CN(C)C1CCN(C(=O)c2c(F)cc(-c3cnc(N)c(-c4nnc(-c5ccccc5)o4)n3)cc2F)CC1 [IA-21] | 10 to 100 |
| Nc1ncc(-c2cccnc2)nc1C(=O)Nc1cccc2cc[nH]c12 [Compound I-83, 3-amino-N-(1H-indol-7-yl)-6-(pyridin-3-yl)pyrazine-2-carboxamide] | 100 to 5000 |
| Nc1ncc(-c2ccc(S(=O)(=O)C3CCOCC3)cc2)nc1-c1nnc(-c2ccccc2F)o1 [IA-327, 3-[5-(2-fluorophenyl)-1,3,4-oxadiazol-2-yl]-5-(4-tetrahydropyran-4-ylsulfonylphenyl)pyrazin-2-amine] | ≤ 10 |
| CN(C)C(=O)c1ccc(-c2cnc(N)c(-c3nnc(-c4ccc[nH]c4=O)o3)n2)cc1 [IA-53] | 10 to 100 |
| COCc1ccccc1-c1cnc(N)c(-c2nnc(-c3ccccc3)o2)n1 [IA-125, 5-[2-(methoxymethyl)phenyl]-3-(5-phenyl-1,3,4-oxadiazol-2-yl)pyrazin-2-amine] | 100 to 5000 |
| Nc1ncc(-c2ccc(C(=O)N3CCNC(C(F)(F)F)C3)cc2)nc1-c1nnc(-c2ccccc2)o1 (centres unmarked) [IA-16] | ≤ 10 |
| Nc1ncc(-c2ccc(N3CCOCC3)nc2)nc1-c1nc2ccccc2[nH]1 [Compound I-135, 3-(1H-benzo[d]imidazol-2-yl)-5-(6-morpholinopyridin-3-yl)pyrazin-2-amine] | 100 to 5000 |
| CC(CCN(C)C)S(=O)(=O)c1ccc(-c2cnc(N)c(-c3nnc(-c4ccccc4F)o3)n2)cc1 (centres unmarked) [IA-343, 5-[4-[3-(dimethylamino)-1-methyl-propyl]sulfonylphenyl]-3-[5-(2-fluorophenyl)-1,3,4-oxadiazol-2-yl]pyrazin-2-amine] | ≤ 10 |
| CN(C)C1CCN(C(=O)c2ccc(-c3cnc(N)c(-c4nnc(-c5ccccc5)o4)n3)c(C(F)(F)F)c2)CC1 [IA-22] | 10 to 100 |
| CC(=O)c1cccc(-c2cnc(N)c(C(=O)Nc3ccccc3)n2)c1 [Compound I-22, 6-(3-acetylphenyl)-3-amino-N-phenylpyrazine-2-carboxamide] | 10 to 100 |
| N#CCCN1CCN(C(=O)c2cccc(-c3cnc(N)c(C(=O)Nc4ccccc4)n3)c2)CC1 [Compound I-58, 3-amino-6-(3-(4-(2-cyanoethyl)piperazine-1-carbonyl)phenyl)-N-phenylpyrazine-2-carboxamide] | 100 to 5000 |
| CNCc1ccc(-c2cc(-c3nc(-c4ccc(S(=O)(=O)C(C)C)cc4)cnc3N)on2)c(F)c1 [IIA-14, 3-[3-[2-fluoro-4-(methylaminomethyl)phenyl]isoxazol-5-yl]-5-(4-isopropylsulfonylphenyl)pyrazin-2-amine] | ≤ 10 |
| COc1ccc2nc(-c3nc(-c4ccc(S(C)(=O)=O)cc4)cnc3N)[nH]c2c1 [Compound I-115, 3-(6-methoxy-1H-benzo[d]imidazol-2-yl)-5-(4-(methylsulfonyl)phenyl) pyrazin-2-amine] | 10 to 100 |
| CS(=O)(=O)c1cccc(-c2cnc(N)c(C(=O)Nc3ccccc3)n2)c1 [Compound I-3] | 100 to 5000 |
| Nc1ncc(-c2ccc(C(=O)N3CCCN(C=O)CC3)cc2)nc1-c1nnc(-c2ccccc2)o1 [IA-29] | ≤ 10 |
| Nc1ncc(-c2ccc(C(=O)N3CCCNCC3)cc2)nc1C(=O)Nc1cc2ccccc2[nH]1 [Compound V-6] | 100 to 5000 |
| CNCc1ccc(-c2nnc(-c3nc(-c4ccc(S(=O)(=O)C(C)C)c(C)c4)cnc3N)o2)cc1 [IA-312, 5-(4-isopropylsulfonyl-3-methyl-phenyl)-3-[5-[4-(methylaminomethyl)phenyl]-1,3,4-oxadiazol-2-yl]pyrazin-2-amine] | ≤ 10 |
| CC(C)S(=O)(=O)c1ccc(-c2cnc(N)c(-c3nnc(-c4cc(C#N)cs4)o3)n2)cc1 [IA-143, 5-[5-[3-amino-6-(4-isopropylsulfonylphenyl)pyrazin-2-yl]-1,3,4-oxadiazol-2-yl]thiophene-3-carbonitrile] | 10 to 100 |
| N#Cc1cnccc1-c1cnc(N)c(C(=O)Nc2ccccc2)n1 [Compound I-2, 3-amino-6-(3-cyanopyridin-4-yl)-N-phenylpyrazine-2-carboxamide] | ≤ 10 |
| Nc1ncc(-c2cccc(C(=O)NCCN3CCCC3)c2)nc1C(=O)Nc1ccccc1 [Compound I-54, 3-amino-N-phenyl-6-(3-(2-(pyrrolidin-1-yl)ethylcarbamoyl)phenyl)pyrazine-2-carboxamide] | 100 to 5000 |
| CC(C)S(=O)(=O)c1ccc(-c2cnc(N)c(-c3nnc(-c4ccc(C(N)C(F)(F)F)cc4)o3)n2)cc1 (stereo in doubt) [IA-325, 3-[5-[4-[(1S)-1-amino-2,2,2-trifluoro-ethyl]phenyl]-1,3,4-oxadiazol-2-yl]-5-(4-isopropylsulfonylphenyl)pyrazin-2-amine] | 10 to 100 |
| CNCc1ccc(-c2nnc(-c3nc(-c4ccc(S(=O)(=O)C(C)C)cc4)cnc3N)o2)c(OC)c1 [IA-171, 5-(4-isopropylsulfonylphenyl)-3-[5-[2-methoxy-4-(methylaminomethyl)phenyl]-1,3,4-oxadiazol-2-yl]pyrazin-2-amine] | ≤ 10 |
| Nc1ncc(-c2cccc(N3CCOCC3)c2)nc1C(=O)Nc1ccccc1 [Compound I-12, 3-amino-6-(3-morpholinophenyl)-N-phenylpyrazine-2-carboxamide] | 100 to 5000 |
| Nc1ncc(-c2ccc(N3CCOCC3)nc2)nc1-c1nnc(-c2ccccc2)o1 [IA-283, 5-(6-morpholino-3-pyridyl)-3-(5-phenyl-1,3,4-oxadiazol-2-yl)pyrazin-2-amine] | 10 to 100 |
| CN(C)C(=O)c1ccc(-c2cnc(N)c(-c3nnc(-c4ccco4)o3)n2)cc1 [IA-115, 4-[5-amino-6-[5-(2-furyl)-1,3,4-oxadiazol-2-yl]pyrazin-2-yl]-N,N-dimethyl-benzamide] | 10 to 100 |
| CC(=O)Nc1ccc(NC(=O)c2nc(-c3cccnc3)cnc2N)cc1 [Compound I-93, 3-amino-N-(4-ethanamidophenyl)-6-(pyridin-3-yl)pyrazine-2-carboxamide] | 100 to 5000 |

The remaining lines, values ahead:

| Ki [nM] | SMILES |
| --- | --- |
| 100 to 5000 | Nc1ncc(-c2ccccc2)nc1-c1nc2ccccc2[nH]1 [Compound I-110, 3-(1H-benzo[d]imidazol-2-yl)-5-phenylpyrazin-2-amine] |
| 10 to 100 | Nc1ncc(-c2cccnc2)nc1-c1nc2ccccc2[nH]1 [Compound I-121, 3-(1H-benzo[d]imidazol-2-yl)-5-(pyridin-3-yl)pyrazin-2-amine] |
| ≤ 10 | Cc1csc(-c2nnc(-c3nc(-c4ccc(C(=O)N(C)C)cc4)cnc3N)o2)c1 [IA-246, 4-[5-amino-6-[5-(4-methyl-2-thienyl)-1,3,4-oxadiazol-2-yl]pyrazin-2-yl]-N,N-dimethyl-benzamide] |
| 10 to 100 | CN(C)C(=O)c1ccc(-c2cnc(N)c(-c3nnc(-c4cccc(O)c4)o3)n2)cc1 [IA-85, 4-[5-amino-6-[5-(3-hydroxyphenyl)-1,3,4-oxadiazol-2-yl]pyrazin-2-yl]-N,N-dimethyl-benzamide] |
| 10 to 100 | CN(C)C1CCN(C(=O)c2ccc(-c3cnc(N)c(C(=O)Nc4ccccc4)n3)cc2)CC1 [Compound I-80, 3-amino-6-(4-(4-(dimethylamino)piperidine-1-carbonyl)phenyl)-N-phenylpyrazine-2-carboxamide] |
| 10 to 100 | CCSc1ccccc1-c1cnc(N)c(-c2nnc(-c3ccccc3)o2)n1 [IA-184, 5-(2-ethylsulfanylphenyl)-3-(5-phenyl-1,3,4-oxadiazol-2-yl)pyrazin-2-amine] |
| ≤ 10 | CS(=O)(=O)c1ccc(-c2cnc(N)c(-c3noc(-c4ccccc4)n3)n2)cc1 [Compound I-144, 5-(4-(methylsulfonyl)phenyl)-3-(5-phenyl-1,2,4-oxadiazol-3-yl)pyrazin-2-amine] |
| ≤ 10 | CN(C)C(=O)c1ccc(-c2cnc(N)c(-c3nnc(-c4ccc(O)cc4)o3)n2)cc1 [IA-87, 4-[5-amino-6-[5-(4-hydroxyphenyl)-1,3,4-oxadiazol-2-yl]pyrazin-2-yl]-N,N-dimethyl-benzamide] |
| 100 to 5000 | CN(C)C(=O)c1ccc(-c2cnc(N)c(-c3nnc(NC4CCNCC4)o3)n2)cc1 [IA-54] |
| 10 to 100 | NC(=O)Cc1ccccc1-c1cnc(N)c(-c2nnc(-c3ccccc3)o2)n1 [IA-266, 2-[2-[5-amino-6-(5-phenyl-1,3,4-oxadiazol-2-yl)pyrazin-2-yl]phenyl]acetamide] |
| ≤ 10 | N#Cc1cc(C(=O)N2CCCNCC2)ccc1-c1cnc(N)c(-c2nnc(-c3ccccc3)s2)n1 [IVA-2, 2-[5-amino-6-(5-phenyl-1,3,4-thiadiazol-2-yl)pyrazin-2-yl]-5-(1,4-diazepane-1-carbonyl)benzonitrile] |
| ≤ 10 | CCNCc1ccc(-c2nnc(-c3nc(-c4ccc(S(=O)(=O)C(C)C)cc4)cnc3N)o2)cc1 [IA-122, 3-[5-[4-(ethylaminomethyl)phenyl]-1,3,4-oxadiazol-2-yl]-5-(4-isopropylsulfonylphenyl)pyrazin-2-amine] |
| ≤ 10 | CNCc1ccc(-c2cc(-c3nc(-c4ccc(S(=O)(=O)C(C)C)cc4)cnc3N)on2)c(C)c1 [IIA-12, 5-(4-isopropylsulfonylphenyl)-3-[3-[2-methyl-4-(methylaminomethyl)phenyl]isoxazol-5-yl]pyrazin-2-amine] |
| 10 to 100 | CN(C)C(=O)c1ccc(-c2cnc(N)c(C(=O)Nc3ccccc3)n2)cc1 [Compound I-24, 3-amino-6-(4-(dimethylcarbamoyl)phenyl)-N-phenylpyrazine-2-carboxamide] |
| ≤ 10 | COCCN(C)C(=O)c1ccc(-c2cnc(N)c(-c3nnc(-c4ccccc4)o3)n2)cc1 [IA-14] |
| 100 to 5000 | Nc1ncc(-c2ccco2)nc1C(=O)Nc1ccccc1 [Compound I-41, 3-amino-6-(furan-2-yl)-N-phenylpyrazine-2-carboxamide] |
| 100 to 5000 | Nc1ncc(-c2cccc(C(=O)N3CCOCC3)c2)nc1C(=O)Nc1ccc(N2CCCC2)cc1 [Compound I-26, 3-amino-6-(3-(morpholine-4-carbonyl)phenyl)-N-(4-(pyrrolidin-1-yl)phenyl)pyrazine-2-carboxamide] |
